# Laboratory results from PMC10783051 (Microbiology Spectrum, 2023).
# System: S. venezuelae supernatant (secreted enzymes)
# Assay: In vitro degradation of CLPs by S. venezuelae cell-free supernatant
# Type: in vitro ADME, Streptomyces venezuelae ATCC 10712
# Conditions: pure CLPs (100 µM) incubated 24 h at 30°C with 4% (vol/vol) Sv CFS (grown on ISP2, 0.22-µm filtered), shaking 180 rpm; UPLC-MS/MS with feature-based molecular networking
# Procedure: S. venezuelae cultures were performed on ISP2 medium at 28°C (yeast extract 4 g/L, malt extract 10 g/L, glucose 4 g/L, agar 20 g/L; pH 7.3). On 12 × 12 cm Petri square plates, three stripes (1 × 12 cm) of spores were inoculated with a cotton swab [40 µL of spores suspension (10^7 spores/mL) each], spaced by 3 cm each. The plates were left for 7 days of incubation. Next, the agar media was recovered and placed in Falcon tubes at −20°C for 24 h. Then, the agar media were defrosted at room temperature and centrifuged (8,000 rpm for 20 min). Finally, the supernatant leaked from the agar was collected, filtered sterilized (0.22-µm pore size filters) and stored at −20°C until further use. The heat-treated Sv supernatant was generated by incubating an aliquot of the cell-free supernatant of Sv for 10 min at 98°C. The supernatant was then filtered (0.22-µm pore size filters) and stored at −20°C until further use.
# […] Then the solutions were incubated for 24 h at 30°C with continuous shaking (180 rpm). Next, the solution were centrifuged (1 min at 10,000 rpm), filtered (0.22-µm pore size filters), and analyzed by UPLC-MS.
# The degradation assays of Pseudomonas CLPs were performed using CFS generated as described above. They were supplemented by 4% (vol/vol) of S. venezuelae CFS prepared as described previously. Next, the solutions were incubated for 24 h at 30°C with continuous shaking (180 rpm). Then, the solution were centrifuged (1 min at 10,000 rpm), filtered (0.22-µm pore size filters), and analyzed by UPLC-MS.
# For the CLP degradation kinetic experiments, surfactin, iturin, and fengycin solutions supplemented with S. venezuelae supernatant were prepared following the same protocol. Twenty microliters of solution was sampled at each time point and directly mixed with 80 µL of acetonitrile to stop enzymatic degradation. Finally, they were stored at −20°C until analysis by UPLC-MS.
# All UPLC-MS analyses were performed using an Agilent 1290 Infinity II coupled with a diode array detector and a mass detector (Jet Stream ESI-Q-TOF 6530) in positive mode with the parameters set up as follows: capillary voltage of 3.5 kV, nebulizer pressure of 35 lb/in^2, drying gas of 8 L/min, drying gas temperature of 300°C, flow rate of sheath gas of 11 L/min, sheath gas temperature of 350°C, fragmentor voltage of 175 V, skimmer voltage of 65 V, and octopole radiofrequency of 750 V. Accurate mass spectra were recorded in the m/z range of 300–1,700. For untargeted MS/MS, we used the same MS1 parameters as described. We added MS2 untargeted acquisition mode with the parameters as follows: MS/MS range 50–1,700 m/z; MS/MS scan rate 3 spectra/s; isolation width MS/MS medium (approx. 4 AMU), Decision Engine Native; fixed collision energies of 25 and 40 V for surfactin, 50 V for iturin, and 60 V for fengycin experiments; precursor selection: three for the surfactin experiment, four for the iturin and fengycin experiments, threshold 1,500 (Abs), isotope model common, active exclusion after two spectra and release after 0.5 min, sorting the precursors by charge state then abundance (charge state preference 1). For targeted MS/MS, we used the same MS1 parameters MS/MS range of 50–1,700 m/z or 50–3,200 (when required for Pseudomonas CLPs with mass >1,700 Da), MS/MS scan rate 3 spectra/s, isolation width MS/MS narrow (approx. 1.3 amu), and fixed collision energies 20, 40, and 60V. In all experiments, a C18 Acquity UPLC ethylene bridged hybrid column (2.1 mm × 50 mm × 1.7 µm; Waters Corporation, Milford, MA, USA) was used at a flow rate of 0.6 mL/min and a temperature of 40°C. The injection volume was 20 µL, and the diode array detector scanned a wavelength spectrum between 190 and 600 nm. Unless otherwise mentioned, a gradient of acidified water (0.1% formic acid) (solvent A) and of acidified acetonitrile (0.1% formic acid) (solvent B) was used as mobile phase with a constant flow rate of 0.6 mL/min, starting at 10% B and rising to 100% B in 20 min. […]
substance,measurement,value
iturin,degradation of pure Bacillus CLPs by Sv CFS,degrades
